In patent US5719279A, “Asymmetrically substituted xanthines” (Boehringer Ingelheim KG, priority 1992, dated 1998):

How the values were obtained:
[1] = test system: CF PAC cells; assay: efflux of chloride ions in CF PAC cells (preliminary investigations); type: cell-based, human (patients suffering from cystic fibrosis); details: activity of A1-antagonists in CF PAC cells
Text: Cystic fibrosis--also known as mucoviscidosis--is a hereditary disorder caused by a genetic defect on a certain chromosome. Only homozygotic carriers of the feature succumb to the disease. The genetic defects leads to the .dysfunction of exocrine glands. As a result of increased production and greater viscosity of the secretions of the mucous glands in the bronchi, severe complications may arise in the respiratory tract. Preliminary investigations have shown that A1 -antagonists increase the efflux of chloride ions, e.g..in CF PAC cells. The cells come from a pancreas adenocarcinoma cell line which was isolated from patients suffering from cystic fibrosis (CF).

[2] = biological target: T1, human A1 adenosine receptor (Homo sapiens, UniProt P30542); assay: receptor binding, A1 adenosine receptor (analogously to Ensinger et al.); details: Table Ia
T1 sequence (P30542 1-326): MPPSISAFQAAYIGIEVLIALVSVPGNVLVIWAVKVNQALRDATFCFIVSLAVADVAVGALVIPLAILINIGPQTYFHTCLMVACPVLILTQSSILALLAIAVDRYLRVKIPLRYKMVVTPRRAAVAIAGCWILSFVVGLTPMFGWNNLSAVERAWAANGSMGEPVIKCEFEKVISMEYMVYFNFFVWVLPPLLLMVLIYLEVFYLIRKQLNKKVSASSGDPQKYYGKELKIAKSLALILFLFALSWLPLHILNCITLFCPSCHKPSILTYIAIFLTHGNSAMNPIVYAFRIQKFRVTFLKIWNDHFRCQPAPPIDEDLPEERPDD
Description: The receptor binding values were determined analogously to Ensinger et al. in "Cloning and functional characterisation of human A1 adenosine receptor--Biochemical and Biophysical Communications, Vol 187, No. 2, 919-926, 1992".

Row | Ki [2] | SMILES | blockade of the chloride efflux activity by agonists [1]
1 | – | Nc1nc(Cl)nc2c1ncn2[C@@H]1O[C@H](CO)[C@@H](O)[C@H]1O [2-chloroadenosine] | successfully blocked
2 | 7.5 nM | CCCn1c(=O)c2[nH]c(C3CCCC3)nc2n(CCCC#N)c1=O [Example 01, 3-(3-cyanopropyl)-8-cyclopentyl-1-propylxanthine] | –
3 | 8 nM | CCCn1c(=O)c2[nH]c(C3CCCC3)nc2n(CCCOC)c1=O [Example 04, 8-cyclopentyl-3-(3-methoxypropyl)-1-propylxanthine] | –
4 | 46.7 nM | CCCn1c(=O)c2[nH]c(C3CCCC3)nc2n(CCO)c1=O [Example 05, 8-cyclopentyl-3-(2-hydroxyethyl)-1-propylxanthine] | –
5 | 66.8 nM | CCCn1c(=O)c2[nH]c(C3CCCC3)nc2n(CCCO)c1=O [Example 06, 8-cyclopentyl-3-(3-hydroxypropyl)-1-propylxanthine] | –
6 | 2.7 nM | CCCn1c(=O)c2[nH]c(C3CCCC3)nc2n(CCOC(C)=O)c1=O [Example 07, 8-cyclopentyl-3-(2-(methylcarbonyloxy)-ethyl)-1-propylxanthine] | –
7 | 3.1 nM | CCCn1c(=O)c2[nH]c(C3CCCC3)nc2n(CCC(=O)OC)c1=O [Example 10, 8-cyclopentyl-3-(2-methoxycarbonylethyl)-1-propylxanthine] | –
8 | 4 nM | CCCn1c(=O)c2[nH]c(C3CCCC3)nc2n(CCC(N)=O)c1=O [Example 11, 3-(2-carbamoylethyl)-8-cyclopentyl-1-propylxanthine] | –
9 | 36.4 nM | CCCn1c(=O)c2[nH]c(C3CCCC3)nc2n(CCC(=O)N2CCOCC2)c1=O [Example 14, 8-cyclopentyl-3-(2-(N-morpholinocarbonyl)-ethyl)-1-propylxanthine] | –
10 | 6.4 nM | CCCn1c(=O)c2[nH]c(C3CCCC3)nc2n(CCC(C)O)c1=O (stereo not shown) [Example 15, 8-cyclopentyl-3-(3-hydroxybutyl)-1-propylxanthine] | –
11 | 3.8 nM | CCCn1c(=O)c2[nH]c(C3CCCC3)nc2n(CC=NO)c1=O [Example 17, 8-cyclopentyl-3-hydroximinoethyl-1-propylxanthine] | –
12 | 11.5 nM | CCCn1c(=O)c2[nH]c(C3CCCC3)nc2n(CCCN2CCOCC2)c1=O [Example 19, 8-cyc lopentyl-3-(3-(N-morpholino)-propyl)-1-propylxanthine] | –
13 | 1.7 nM | CCCn1c(=O)c2[nH]c(C3CCCC3)nc2n(CCc2ccc(O)cc2)c1=O [Example 24, 8-cyclopentyl-3-(2-(p-hydroxyphenyl)-ethyl)-1-propylxanthine] | –
14 | 29.3 nM | CCCn1c(=O)c2[nH]c(C3CCCC3)nc2n(CCc2ccc(OC(C)=O)cc2)c1=O [Example 28, 8-cyclopentyl-3-(2-(p-(methylcarbonyloxy)-phenyl)-ethyl)-1-propylxanthine] | –
15 | 9.1 nM | CCCn1c(=O)c2[nH]c(C3CCCC3)nc2n(CCCc2ccc(OCC(=O)OCC)cc2)c1=O [Example 31, 8-cyclopentyl-3-(3-(p-(ethoxycarbonylmethyloxy)-phenyl)-propyl)-1-propylxanthine] | –
16 | 2.1 nM | CCCn1c(=O)c2[nH]c(C3CCCC3)nc2n(CCSCCO)c1=O [Example 47, 8-cyclopentyl-3-(2-(2-hydroxyethyl)-thioethyl)-1-propylxanthine] | –
17 | 5 nM | CCCn1c(=O)c2[nH]c(C3CCCC3)nc2n(CCCc2cccnc2)c1=O [Example 52] | –
18 | 2 nM | CCCn1c(=O)c2[nH]c(C3CCCC3)nc2n(CCc2ccncc2)c1=O [Example 59] | –
19 | 3.8 nM | CCCn1c(=O)c2[nH]c(C3CCCC3)nc2n(CCCC(N)=O)c1=O [Example 60, 3-(3-(aminocarbonyl)-propyl)-8-cyclopentyl-1-propylxanthine] | –
20 | 32.6 nM | CCCn1c(=O)c2[nH]c(C3CCCC3)nc2n(CCN2CCSCC2)c1=O [Example 68] | –
21 | 6.2 nM | CCCn1c(=O)c2[nH]c(C3CCCC3)nc2n(CCS(=O)(=O)CCO)c1=O [Example 70, 8-cyclopentyl-3-(2-(2-hydroxyethyl)-sulphonylethyl)-1-propyl-xanthine] | –

Row | SMILES | Ki [2] | blockade of the chloride efflux activity by agonists [1]
22 | CCCn1c(=O)c2[nH]c(C3CCCC3)nc2n(CCCOC(C)=O)c1=O [Example 08, 8-cyclopentyl-3-(3-acetoxypropyl)-1-propylxanthine] | 3.5 nM | –
